Test results from publication PMC13110330, “Design, Synthesis, and Evaluation of New Polyhydroxylated B is‐Chalcones as Potential COX‐2 Selective Inhibitors” (Chemmedchem, 2026).

Columns and labels:
human recombinant COX‐2 = biological target: T1, human recombinant COX‐2 (Homo sapiens, UniProt P35354); experiment: In vitro fluorometric COX‐2 inhibitory assay and selectivity index; format: biochemical; settings: for IC50: human recombinant enzyme
T1 construct: purchased Sigma Chemical Co. (St. Louis, MO, USA)
T1 sequence (P35354 18-604): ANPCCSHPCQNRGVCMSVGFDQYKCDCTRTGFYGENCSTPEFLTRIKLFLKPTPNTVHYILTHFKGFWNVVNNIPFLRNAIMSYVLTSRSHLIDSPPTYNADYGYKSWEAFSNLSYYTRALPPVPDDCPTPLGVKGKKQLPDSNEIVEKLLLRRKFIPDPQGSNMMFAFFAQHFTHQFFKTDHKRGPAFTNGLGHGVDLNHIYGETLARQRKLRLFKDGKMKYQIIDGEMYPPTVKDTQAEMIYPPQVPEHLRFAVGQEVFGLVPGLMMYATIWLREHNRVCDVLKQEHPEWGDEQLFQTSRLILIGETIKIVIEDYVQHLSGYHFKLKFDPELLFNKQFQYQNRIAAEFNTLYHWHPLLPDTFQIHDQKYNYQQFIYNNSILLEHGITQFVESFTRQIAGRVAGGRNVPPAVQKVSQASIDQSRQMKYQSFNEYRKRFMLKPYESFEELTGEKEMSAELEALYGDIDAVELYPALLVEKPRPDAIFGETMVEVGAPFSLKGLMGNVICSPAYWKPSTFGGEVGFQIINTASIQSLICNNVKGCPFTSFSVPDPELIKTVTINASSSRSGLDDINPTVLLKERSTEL

human recombinant COX‐1 = biological target: T2, human recombinant COX‐1 (Homo sapiens, UniProt P23219); experiment: In vitro fluorometric COX‐1 inhibitory assay; format: biochemical; settings: mean ± SEM; for IC50: human recombinant enzyme
T2 construct: purchased Sigma Chemical Co. (St. Louis, MO, USA)
Protocol: The COX‐1/2 inhibitory potential of bis‐chalcones was assessed with an in vitro fluorometric assay, based on the protocol outlined by Sigma‐Aldrich in their COX‐2 Inhibitor Screening Kit.
To conduct the assay, human recombinant COX‐1 or COX‐2 (2.5 ng/µL) was combined with diluted hemin (1 µM), COX cofactor, and ampliflu red (100 µM) in assay buffer (trizma hydrochloride pH = 8.0 and EDTA 0.1 µM).

COX‐2 = tested on: COX‐2; set-up: method as in PMID 824724; settings: measured in rabbit cell; cited from earlier work
[1] = SI = % inhibition COX‐2 / % inhibition COX‐1 at 100 µM
[2] = at 100 μM, highest tested concentration, mean ± SEM
[3] = at 100 μM, highest tested concentration

T2 sequence (P23219 24-599): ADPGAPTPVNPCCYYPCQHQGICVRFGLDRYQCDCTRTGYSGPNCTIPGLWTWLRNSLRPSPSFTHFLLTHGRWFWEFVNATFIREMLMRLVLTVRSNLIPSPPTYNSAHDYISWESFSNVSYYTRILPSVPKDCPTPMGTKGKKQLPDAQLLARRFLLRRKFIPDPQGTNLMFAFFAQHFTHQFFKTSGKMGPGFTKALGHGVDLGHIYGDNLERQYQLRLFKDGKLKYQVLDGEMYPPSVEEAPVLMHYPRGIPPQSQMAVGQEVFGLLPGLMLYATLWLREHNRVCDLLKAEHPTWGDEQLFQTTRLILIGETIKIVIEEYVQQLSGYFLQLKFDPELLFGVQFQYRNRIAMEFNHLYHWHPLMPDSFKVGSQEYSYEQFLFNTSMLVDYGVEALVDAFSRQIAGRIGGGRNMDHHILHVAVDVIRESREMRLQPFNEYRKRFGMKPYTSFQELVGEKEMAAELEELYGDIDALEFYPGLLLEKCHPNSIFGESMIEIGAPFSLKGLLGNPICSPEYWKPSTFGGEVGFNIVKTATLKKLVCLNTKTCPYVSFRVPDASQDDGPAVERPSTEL

| inhibition at 100 µM (human recombinant COX‐2; [2]) [%] | inhibition at 100 µM (human recombinant COX‐1; [3]) [%] | Compound | other results |
| --- | --- | --- | --- |
| ~50 | ~50 | COc1cc(OC)c(C(=O)/C=C/c2ccc(O)cc2)c(OC)c1C(=O)/C=C/c1ccc(O)cc1 [Compound 12, (2E,2′E)−1,1′‐(2,4,6‐Trimethoxy‐1,3‐phenylene)bis[3‐(4‐hydroxyphenyl)prop‐2‐en‐1‐one]] | Selectivity index (SI) (human recombinant COX‐2; [1]): 0.9 |
| < 30 | < 30 | COc1ccc(/C=C/C(=O)c2c(OC)cc(OC)c(C(=O)/C=C/c3ccc(OC)c(OC)c3)c2OC)cc1OC [Compound 10, (2E,2′E)−1,1′‐(2,4,6‐Trimethoxy‐1,3‐phenylene)bis[3‐(3,4‐dimethoxyphenyl)prop‐2‐en‐1‐one]] |  |
| < 30 | < 30 | COc1cc(OC)c(C(=O)/C=C/c2ccc(Br)cc2)c(OC)c1C(=O)/C=C/c1ccc(Br)cc1 [Compound 14, (2E,2′E)−1,1′‐(2,4,6‐Trimethoxy‐1,3‐phenylene)bis[3‐(4‐bromophenyl)prop‐2‐en‐1‐one]] |  |
| < 30 | < 30 | COc1ccc(/C=C/C(=O)c2c(OC)cc(OC)c(C(=O)/C=C/c3ccc(OC)cc3)c2OC)cc1 [Compound 11, (2E,2′E)−1,1′‐(2,4,6‐Trimethoxy‐1,3‐phenylene)bis[3‐(4‐methoxyphenyl)prop‐2‐en‐1‐one]] |  |
| < 30 | < 30 | COCOc1cc(OCOC)c(C(=O)/C=C/c2ccc(OC)cc2)c(OCOC)c1C(=O)/C=C/c1ccc(OC)cc1 [Compound 20, (2E,2′E)−1,1′‐[2,4,6‐Tris(methoxymethoxy)−1,3‐phenylene]bis[3‐(4‐methoxyphenyl)prop‐2‐en‐1‐one]] |  |

More lines, now with the values behind:

| Compound | inhibition at 100 µM (human recombinant COX‐2; [2]) [%] | inhibition at 100 µM (human recombinant COX‐1; [3]) [%] | other results |
| --- | --- | --- | --- |
| COc1cc(/C=C/C(=O)c2c(O)cc(O)c(C(=O)/C=C/c3ccc(O)c(OC)c3)c2O)ccc1O [Compound 28, (2E,2′E)−1,1′‐(2,4,6‐Trihydroxy‐1,3‐phenylene)bis[3‐(4‐hydroxy‐3‐methoxyphenyl)prop‐2‐en‐1‐one]] |  |  | Selectivity index (SI) (human recombinant COX‐2; SI = IC50 COX‐1 / IC50 COX‐2): 2.6; IC50 (human recombinant COX‐2; mean ± SEM): 14.6 ± 0.5 µM; IC50 (human recombinant COX‐1): 37 ± 4 µM |
| COc1ccc(/C=C/C(=O)c2c(O)cc(O)c(C(=O)/C=C/c3ccc(OC)c(OC)c3)c2O)cc1OC [Compound 26, (2E,2′E)−1,1′‐(2,4,6‐Trihydroxy‐1,3‐phenylene)bis[3‐(3,4‐dimethoxyphenyl)prop‐2‐en‐1‐one]] | 40 to 50 | 40 to 50 | Selectivity index (SI) (human recombinant COX‐2; [1]): 0.8 |
| COc1ccc(/C=C/C(=O)c2c(O)cc(O)c(C(=O)/C=C/c3ccc(OC)cc3)c2O)cc1 [Compound 27, (2E,2′E)−1,1′‐(2,4,6‐Trihydroxy‐1,3‐phenylene)bis[3‐(4‐methoxyphenyl)prop‐2‐en‐1‐one]] |  |  | Selectivity index (SI) (human recombinant COX‐2; SI = IC50 COX‐1 / IC50 COX‐2): 1.2; IC50 (human recombinant COX‐2; mean ± SEM): 44 ± 3 µM; IC50 (human recombinant COX‐1): 48 ± 2 µM |
| COCOc1cc(OCOC)c(C(=O)/C=C/c2ccc(Br)cc2)c(OCOC)c1C(=O)/C=C/c1ccc(Br)cc1 [Compound 22, (2E,2′E)−1,1′‐[2,4,6‐Tris(methoxymethoxy)−1,3‐phenylene]bis(3‐(4‐bromophenyl)prop‐2‐en‐1‐one)] | < 30 | < 30 |  |
| O=C(/C=C/c1ccc(Br)cc1)c1c(O)cc(O)c(C(=O)/C=C/c2ccc(Br)cc2)c1O [Compound 29, (2E,2′E)−1,1′‐(2,4,6‐Trihydroxy‐1,3‐phenylene)bis[3‐(4‐bromophenyl)prop‐2‐en‐1‐one]] | 40 to 50 | 40 to 50 | Selectivity index (SI) (human recombinant COX‐2; [1]): 1.1; COX‐2 IC50, µM or Inhibition, % (human recombinant COX‐2; cell carries superscript 100 μM (highest tested concentration)): 58 ± 3 µM ^100 μM |
| (2E,2′E)−1,1′‐{2,4,6‐Tris[(2‐methoxyethoxy)methoxy]−1,3‐phenylene}bis(3‐{3,4‐bis[(2‐methoxyethoxy)methoxy]phenyl}prop‐2‐en‐1‐one) [Compound 24] |  |  | COX‐2 Inhibition, % (human recombinant COX‐2; [2]): <30% ^100 μM; COX‐1 Inhibition, % (human recombinant COX‐1; [3]): <30% ^100 μM |
| COCOc1cc(OCOC)c(C(=O)/C=C/c2ccc(OC)c(OC)c2)c(OCOC)c1C(=O)/C=C/c1ccc(OC)c(OC)c1 [Compound 19, (2E,2′E)−1,1′‐[2,4,6‐Tris(methoxymethoxy)−1,3‐phenylene]bis[3‐(3,4‐dimethoxyphenyl)prop‐2‐en‐1‐one]] | < 30 | < 30 |  |
| COc1cc(OC)c(C(=O)/C=C/c2cccc(Cl)c2)c(OC)c1C(=O)/C=C/c1cccc(Cl)c1 [Compound 15, (2E,2′E)−1,1′‐(2,4,6‐Trimethoxy‐1,3‐phenylene)bis[3‐(3‐chlorophenyl)prop‐2‐en‐1‐one]] | < 30 | < 30 |  |
| Cc1c(Cl)cccc1Nc1ccccc1C(=O)O [tolfenamic acid] |  |  | IC50 (COX‐2): 0.64 µM |
| COCOc1ccc(/C=C/C(=O)c2c(OCOC)cc(OCOC)c(C(=O)/C=C/c3ccc(OCOC)cc3)c2OCOC)cc1 [Compound 25, (2E,2′E)−1,1′‐[2,4,6‐Tris(methoxymethoxy)−1,3‐phenylene]bis{3‐[4‐(methoxymethoxy)phenyl]prop‐2‐en‐1‐one}] | < 30 | < 30 |  |
| COc1cc(/C=C/C(=O)c2c(OC)cc(OC)c(C(=O)/C=C/c3ccc(O)c(OC)c3)c2OC)ccc1O [Compound 13, (2E,2′E)−1,1′‐(2,4,6‐Trimethoxy‐1,3‐phenylene)bis[3‐(4‐hydroxy‐3‐methoxyphenyl)prop‐2‐en‐1‐one]] |  |  | Selectivity index (SI) (human recombinant COX‐2; SI = IC50 COX‐1 / IC50 COX‐2): 4.4; IC50 (human recombinant COX‐2; mean ± SEM): 5.5 ± 0.7 µM; IC50 (human recombinant COX‐1): 24 ± 3 µM |
| COCOc1ccc(/C=C/C(=O)c2c(OCOC)cc(OCOC)c(C(=O)/C=C/c3ccc(OCOC)c(OC)c3)c2OCOC)cc1OC [Compound 21, (2E,2′E)−1,1′‐[2,4,6‐Tris(methoxymethoxy)−1,3‐phenylene]bis{3‐[3‐methoxy‐4‐(methoxymethoxy)phenyl]prop‐2‐en‐1‐one}] | < 30 | < 30 |  |
